Results reported in ChEMBL document CHEMBL6120974, “Hydrazide-Based Class I Selective HDAC Inhibitors Completely Reverse Chemoresistance Synergistically in Platinum-Resistant Solid Cancer Cells” (J Med Chem, 2024).
The source made the active and inactive calls. No cut-off for these calls is given here.

Legend:
[1] = test system: A2780; assay: Induction of apoptosis in human A2780 cells assessed as increase in apoptotic nuclei at sub-G1 phase at 2 uM in presence of cisplatin at 16 uM preincubated with compound for 48 hrs prior to addition of cisplatin and measured after 24 hrs by flow cytometric analysis; type: functional, cell-based; details: time 72.0 hrs
[2] = target: Histone deacetylase 4 (Homo sapiens, UniProt P56524); assay: Inhibition of recombinant HDAC4 (unknown origin) using Bos-Lys(TFA)-AMC as substrate preincubated with compound for 5 mins and measured after 90 mins by NOVOstar microplate reader analysis
[3] = test system: Cal27CisR; assay: Downregulation of survivin expression in cisplatin resistant human Cal27CisR cells at 0.316 uM incubated for 48 hrs by Immunoblotting analysis; type: functional, cell-based
[4] = test system: A2780cisR; assay: Induction of apoptosis in cisplatin resistant human A2780 cisR cells assessed as increase in apoptotic nuclei at sub-G1 phase at 2 uM in presence of cisplatin at 16 uM preincubated with compound for 48 hrs prior to addition of cisplatin and measured after 24 hrs by flow cytometric analysis; type: functional, cell-based; details: time 72.0 hrs
[5] = cells; details: Homo sapiens, CAL-27
[6] = test system: MV4-11; assay: cells; details: Homo sapiens, MV4-11, 72 h
[7] = test system: A2780; assay: Downregulation of survivin expression in human A2780 cells at 0.75 uM in presence of cisplatin at 3.5 uM preincubated with compound for 48 hrs prior to addition of cisplatin and measured after 24 hrs by Immunoblotting analysis; type: functional, cell-based; details: time 72.0 hrs
[8] = test system: Cal27CisR; assay: Induction of apoptosis in cisplatin resistant human Cal27CisR cells assessed as increase in Bcl-2 protein level at 0.316 uM in presence of cisplatin at 16.5 uM preincubated with compound for 48 hrs prior to addition of cisplatin and measured after 24 hrs by Immunoblotting analysis; type: functional, cell-based; details: time 72.0 hrs
[9] = cells; details: Homo sapiens, A2780
[10] = test system: A2780; assay: Downregulation of survivin expression in human A2780 cells at 0.75 uM incubated for 48 hrs by Immunoblotting analysis; type: functional, cell-based
[11] = test system: A2780cisR; assay: Effect on survivin expression in human cisplatin resistant human A2780 cisR cells at 2 uM incubated for 48 hrs by Immunoblotting analysis; type: functional, cell-based
[12] = test system: Cal27CisR; assay: Induction of apoptosis in cisplatin resistant human Cal27CisR cells assessed as caspase-3/7 activation at 0.316 uM incubated for 48 hrs by capase3/7 green dye based analysis; type: functional, cell-based
[13] = test system: CAL-27; assay: Induction of apoptosis in human CAL-27 cells assessed as increase in BIM expression at 0.316 uM incubated for 48 hrs by Immunoblotting analysis; type: functional, cell-based
[14] = test system: CAL-27; assay: Induction of apoptosis in human CAL-27 cells assessed as apoptotic nuclei at sub-G1 phase at 0.316 uM incubated for 48 hrs by flow cytometric analysis; type: functional, cell-based
[15] = test system: A2780cisR; assay: Induction of apoptosis in cisplatin resistant human A2780 cisR cells assessed as increase in caspase 3/7 activation at 2 uM in presence of cisplatin preincubated with compound for 48 hrs co-treated with cisplatin and measured after 24 hrs by capase3/7 green dye based analysis; type: functional, cell-based; details: time 72.0 hrs
[16] = test system: Cal27CisR; assay: Induction of apoptosis in cisplatin resistant human Cal27CisR cells assessed as apoptotic nuclei at sub-G1 phase at 0.316 uM incubated for 48 hrs by flow cytometric analysis; type: functional, cell-based
[17] = test system: A2780; assay: Induction of apoptosis in human A2780 cells assessed as decrease in Bcl-2 protein level at 0.75 uM in presence of cisplatin at 3.5 uM preincubated with compound for 48 hrs prior to addition of cisplatin and measured after 24 hrs by Immunoblotting analysis; type: functional, cell-based; details: time 72.0 hrs
[18] = test system: Cal27CisR; assay: Induction of apoptosis in cisplatin resistant human Cal27CisR cells assessed as increase in apoptotic nuclei at sub-G1 phase at 0.316 uM in presence of cisplatin at 3 uM preincubated with compound for 48 hrs prior to addition of cisplatin and measured after 24 hrs by flow cytometric analysis; type: functional, cell-based; details: time 72.0 hrs
[19] = test system: Cal27CisR; assay: Induction of DNA damage in cisplatin resistant human Cal27CisR cells assessed as increase in gammaH2AX formation at 0.316 uM in presence of cisplatin at 16.5 uM pretreated with compound for 48 hrs prior to addition of cisplatin and measured after 24 hrs by Hoechst 33342 staining based Immunofluorescence analysis; type: functional, cell-based; details: time 72.0 hrs
[20] = test system: CAL-27; assay: Induction of apoptosis in human CAL-27 cells assessed as increase in Bcl-2 protein level at 0.316 uM incubated for 48 hrs by Immunoblotting analysis; type: functional, cell-based
[21] = test system: A2780; assay: Induction of cell cycle arrest in human A2780 cells assessed as increase in p21 expression at 0.75 uM incubated for 48 hrs by Western blotting analysis; type: functional, cell-based
[22] = test system: Cal27CisR; assay: Induction of apoptosis in cisplatin resistant human Cal27CisR cells assessed as increase in caspase 3/7 activation at 0.316 uM in presence of cisplatin preincubated with compound for 48 hrs co-treated with cisplatin and measured after 24 hrs by capase3/7 green dye based analysis; type: functional, cell-based; details: time 72.0 hrs
[23] = test system: A2780; assay: Induction of DNA damage in human A2780 cells assessed as increase in gammaH2AX formation at 0.75 uM in presence of cisplatin at 3.5 uM pretreated with compound for 48 hrs prior to addition of cisplatin and measured after 24 hrs by Hoechst 33342 staining based Immunofluorescence analysis; type: functional, cell-based; details: time 72.0 hrs
[24] = cells; details: Homo sapiens, Cal27CisR
[25] = test system: A2780; assay: Induction of apoptosis in human A2780 cells assessed as caspase-3/7 activation at 2 uM incubated for 48 hrs by capase3/7 green dye based analysis; type: functional, cell-based
[26] = test system: CAL-27; assay: Induction of apoptosis in human CAL-27 cells assessed as increase in Bcl-2 protein level at 0.316 uM in presence of cisplatin at 3 uM preincubated with compound for 48 hrs prior to addition of cisplatin and measured after 24 hrs by Immunoblotting analysis; type: functional, cell-based
[27] = cells; details: Homo sapiens, Cal27CisR, 72 h
[28] = test system: Cal27CisR; assay: Downregulation of BAX expression in cisplatin resistant human Cal27CisR cells at 0.316 uM incubated for 48 hrs by Immunoblotting analysis; type: functional, cell-based
[29] = cells; details: Homo sapiens, A2780; remark: listed apart in the source
[30] = test system: A2780; assay: Downregulation of BAX expression in human A2780 cells at 0.75 uM incubated for 48 hrs by Immunoblotting analysis; type: functional, cell-based
[31] = cells; details: Homo sapiens, A2780cisR
[32] = test system: CAL-27; assay: Induction of apoptosis in human CAL-27 cells assessed as increase in caspase 3/7 activation at 0.316 uM in presence of cisplatin preincubated with compound for 48 hrs co-treated with cisplatin and measured after 24 hrs by capase3/7 green dye based analysis; type: functional, cell-based; details: time 72.0 hrs
[33] = test system: Cal27CisR; assay: Induction of apoptosis in cisplatin resistant human Cal27CisR cells assessed as increase in Bcl-2 protein level at 0.316 uM incubated for 48 hrs by Immunoblotting analysis; type: functional, cell-based
[34] = test system: A2780cisR; assay: Induction of apoptosis in cisplatin resistant human A2780 cisR cells assessed as decrease in Bcl-2 protein level at 2 uM incubated for 48 hrs by Immunoblotting analysis; type: functional, cell-based
[35] = test system: CAL-27; assay: Induction of apoptosis in human CAL-27 cells assessed as caspase-3/7 activation at 0.316 uM incubated for 48 hrs by capase3/7 green dye based analysis; type: functional, cell-based

Chain of Histone deacetylase 4 (P56524 whole entry): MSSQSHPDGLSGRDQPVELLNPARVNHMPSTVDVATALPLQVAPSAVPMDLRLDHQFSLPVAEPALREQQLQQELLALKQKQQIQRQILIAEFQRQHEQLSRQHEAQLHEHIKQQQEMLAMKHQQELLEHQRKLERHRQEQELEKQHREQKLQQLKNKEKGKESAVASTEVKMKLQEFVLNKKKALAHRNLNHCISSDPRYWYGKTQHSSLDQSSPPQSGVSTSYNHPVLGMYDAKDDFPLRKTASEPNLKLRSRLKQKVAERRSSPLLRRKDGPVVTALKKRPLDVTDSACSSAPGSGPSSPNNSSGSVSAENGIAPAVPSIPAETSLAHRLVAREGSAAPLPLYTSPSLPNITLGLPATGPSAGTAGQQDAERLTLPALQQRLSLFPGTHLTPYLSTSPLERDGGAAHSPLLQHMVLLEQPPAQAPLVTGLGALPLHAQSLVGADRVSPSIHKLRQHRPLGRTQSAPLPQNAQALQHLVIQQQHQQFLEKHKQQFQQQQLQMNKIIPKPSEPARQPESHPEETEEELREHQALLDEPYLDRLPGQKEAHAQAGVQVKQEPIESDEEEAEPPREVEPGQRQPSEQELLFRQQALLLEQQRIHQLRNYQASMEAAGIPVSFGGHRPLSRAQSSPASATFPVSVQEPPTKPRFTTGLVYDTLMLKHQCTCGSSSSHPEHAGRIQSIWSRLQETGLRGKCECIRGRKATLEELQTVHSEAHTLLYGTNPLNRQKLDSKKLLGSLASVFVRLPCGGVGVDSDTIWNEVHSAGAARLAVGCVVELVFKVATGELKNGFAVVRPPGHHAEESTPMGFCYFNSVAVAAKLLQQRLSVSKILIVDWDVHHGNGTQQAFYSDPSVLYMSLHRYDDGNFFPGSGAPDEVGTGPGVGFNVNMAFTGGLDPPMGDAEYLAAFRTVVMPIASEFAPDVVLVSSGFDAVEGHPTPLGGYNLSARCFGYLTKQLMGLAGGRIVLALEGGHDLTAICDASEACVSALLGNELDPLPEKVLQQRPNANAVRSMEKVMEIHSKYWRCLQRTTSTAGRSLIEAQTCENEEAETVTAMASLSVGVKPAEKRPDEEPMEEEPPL

Row | IC50 [2] | IC50 [5] | IC50 [6] | IC50 [9] | SMILES | Activity [1] | Activity [3] | Activity [4] | Activity [7] | Activity [8] | Activity [10] | Activity [11] | Activity [12] | Activity [13] | Activity [14] | Activity [15] | Activity [16] | Activity [17] | Activity [18] | Activity [19] | Activity [20] | other results
1 | > 10000 nM | 151 nM | 194 nM | 235 nM | CCCNNC(=O)c1ccc(CN(CC(=O)NCc2ccccc2)C(=O)c2ccc(N(C)C)cc2)cc1 | inactive | Active | inactive | Active | Not active; Slight Increase Observed | Active | inactive | Active; Low Activation Observed | Active | Active; Moderate Percentage Of Apoptotic Nuclei Observed | Active | Active; Moderate Percentage Of Apoptotic Nuclei Observed | Active | Active | Active | Not active; Slight Increase Observed | Activity [21]: Active; Activity [22]: Active; Activity [23]: inactive; IC50 [24]: 2320 nM; Activity [25]: Active; Remarkable Activation Observed; Activity [26]: Not active; Slight Increase Observed; IC50 [27]: 801 nM; Activity [28]: Active; IC50 [29]: 115000 nM; Activity [30]: Active; IC50 [31]: 295 nM; Activity [32]: Active; Activity [33]: Not active; Slight Increase Observed; Activity [34]: Active; Activity [35]: Active; Low Caspase Activation Observed
2 | > 10000 nM | 166 nM | 212 nM | 263 nM | CCCCNNC(=O)c1ccc(CN(CC(=O)NCc2ccccc2)C(=O)c2ccc(N(C)C)cc2)cc1 | inactive | Active | inactive | Active | Not active; Slight Increase Observed | Active | inactive | Active; Low Activation Observed | Active | Active; Moderate Percentage Of Apoptotic Nuclei Observed | Active | Active; Moderate Percentage Of Apoptotic Nuclei Observed | Active | Active | Active | Not active; Slight Increase Observed | Activity [21]: Active; Activity [22]: Active; Activity [23]: inactive; IC50 [24]: 2220 nM; Activity [25]: Active; Remarkable Activation Observed; Activity [26]: Not active; Slight Increase Observed; IC50 [27]: 968 nM; Activity [28]: Active; IC50 [29]: 15900 nM; Activity [30]: Active; IC50 [31]: 268 nM; Activity [32]: Active; Activity [33]: Not active; Slight Increase Observed; Activity [34]: Active; Activity [35]: Active; Low Caspase Activation Observed
